Experimental data as given in patent publication US5721208A, “Glycopeptides a process for their preparation and their use” (Hoechst Aktiengesellschaft, priority 1991, dated 1998).

Legend:
Staph. aureus SG 511 = assay: Minimum bacteriostatic inhibitory concentration, Agar dilution method; type: cell-based
Staph. aureus 285 = assay: as above; type: cell-based
Staph. aureus 503 = assay: as above; type: cell-based
Strept. pyogenes 308 A = assay: as above; type: cell-based
Strept. pyogenes 77 A = assay: as above; type: cell-based
Strept. faecium D = assay: as above; type: cell-based
Escherichia coli DC 2 = assay: as above; type: cell-based
Bact. fragilis 312 = assay: as above; type: cell-based
Bact. fragilis 960 = assay: as above; type: cell-based
Bact. fragilis 1313 = assay: as above; type: cell-based
Bact. vulgatus 1446 = assay: as above; type: cell-based
[1] = test system: Peptostrept. anaerob. 932; assay: as above; type: cell-based
Propioni acnes 6916 = assay: as above; type: cell-based
Propioni acnes 6922 = assay: as above; type: cell-based
[2] = test system: Clostridium tetani ATCC 1940650; details: Agar dilution method
[3] = test system: Clostridium perfringens 194; details: Agar dilution method

## CC1OC(OC2c3ccc(c(Cl)c3)Oc3cc4cc(c3OC3OC(CO)C(O)C(O)C3O)Oc3ccc(cc3Cl)C(O)C(N)C(=O)NC(CC(N)=O)C(=O)NC4C(=O)NC3C(=O)NC2C(=O)NC(C(=O)O)c2cc(O)cc(O)c2-c2cc3ccc2O)CC(C)(N)C1=O (stereo not shown) [Desmethylleucylbalhimycin, desmethylleucylbalhimycin]
Staph. aureus SG 511
  Minimum bacteriostatic inhibitory concentration: 3 micrograms per milliliter
Staph. aureus 285
  Minimum bacteriostatic inhibitory concentration: 6 micrograms per milliliter
Staph. aureus 503
  Minimum bacteriostatic inhibitory concentration: 6 micrograms per milliliter
Strept. pyogenes 308 A
  Minimum bacteriostatic inhibitory concentration: 12.5 micrograms per milliliter
Strept. pyogenes 77 A
  Minimum bacteriostatic inhibitory concentration: 3 micrograms per milliliter
Strept. faecium D
  Minimum bacteriostatic inhibitory concentration: 6 micrograms per milliliter
Escherichia coli DC 2
  Minimum bacteriostatic inhibitory concentration: > 100 micrograms per milliliter
Bact. fragilis 312
  Minimum bacteriostatic inhibitory concentration: 50 micrograms per milliliter
Bact. fragilis 960
  Minimum bacteriostatic inhibitory concentration: 50 micrograms per milliliter
Bact. fragilis 1313
  Minimum bacteriostatic inhibitory concentration: 100 micrograms per milliliter
Bact. vulgatus 1446
  Minimum bacteriostatic inhibitory concentration: 100 micrograms per milliliter
[1]
  Minimum bacteriostatic inhibitory concentration: 50 micrograms per milliliter
Propioni acnes 6916
  Minimum bacteriostatic inhibitory concentration: 6 micrograms per milliliter
Propioni acnes 6922
  Minimum bacteriostatic inhibitory concentration: 6 micrograms per milliliter
[2]
  Minimum bacteriostatic inhibitory concentration: 50 micrograms per milliliter
[3]
  Minimum bacteriostatic inhibitory concentration: 6 micrograms per milliliter
